Measurements: patent publication US4698350A, “1-ethyl-6-fluoro-1,4-dihydro- 7-(2,6-dimethyl-4-pyridinyl)-4-oxo-3-quinolinecarboxylic acid and antibacterial use thereof” (Sterling Drug Inc., priority 1984, dated 1987)
In brackets after ≈: the same amount, converted by molar mass. Where two headings read alike, the source gives them in different places.

Experiments:
[1] = system: Staphylococcus aureus Smith; assay: Mouse protection test, S. aureus Smith infection, single dose; type: in vivo, ICR mice; Staphylococcus aureus; conditions: for ED50: Staphylococcus aureus, 168 h, read-out: Protective Dose 50% (95% Confidence Limits); for times more efficacious than Win 35,439: S. aureus
Protocol: (§1) ICR mice, female, 18-20 grams each.
(§2) Solutions of Win 52,522 and Win 35,439 were prepared by dissolving the appropriate weight of drug in 0.3 to 0.4 ml of 1 N NaOH and then bringing the solutions to the desired volume with distilled water. Methicillin and vancomycin were dissolved directly in distilled water.
(§3) Two and one-half ml of pool were added to 247.5 ml of 5% gastric mucin to provide the test inoculum containing 2.1×10^4 cells/ml.
(§4) Mice were inoculated intraperitoneally with 0.5 ml of the bacterial test inoculum.
1. Single dose test--Mice were medicated subcutaneously or orally once (0.5 ml) one-half hour postinfection.
(§5) Deaths were recorded daily for seven days for all tests. Fifty percent protective dose values (PD50's) were calculated using probit analysis [SAS Users Guide: Statistics, 1982 Edition, SAS Institute, Inc., Cary, N.C.].

[2] = system: P. aeruginosa MGH-2; assay: In vitro antibacterial MIC/MBC test; type: cell-based; conditions: Pseudomonas aeruginosa, MGH2
Procedure, shortened: (§6)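 Broth microdilution with two-fold serial dilutions in MHB (BHI+1% NHS for streptococci), final inoculum approx. 1×10^5 cells/ml, 37° C. for 18-20 hours. MIC is the lowest concentration preventing visible growth. For MBC, wells were subcultured onto MHA or BHI agar+10% NHS; the MBC is the lowest concentration yielding no recognizable colony.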

[3] = system: P. aeruginosa (9027); assay: In vitro antibacterial MIC/MBC test; type: cell-based; conditions: Pseudomonas aeruginosa, ATCC9027; P. aeruginosa ATCC No. 9027
Procedure, shortened: as §6

[4] = system: E. coli (8739); assay: In vitro antibacterial MIC/MBC test; type: cell-based; conditions: Escherichia coli, ATCC8739; E. coli ATCC No. 8739
Procedure, shortened: as §6

[5] = system: P. aeruginosa (27853); assay: In vitro antibacterial MIC/MBC test; type: cell-based; conditions: Pseudomonas aeruginosa, ATCC27853; P. aeruginosa ATCC No. 27853
Procedure, shortened: as §6

[6] = system: E. coli 198; assay: In vitro antibacterial MIC/MBC test; type: cell-based; conditions: Escherichia coli
Procedure, shortened: as §6

[7] = system: P. aeruginosa (7700); assay: In vitro antibacterial MIC/MBC test; type: cell-based; conditions: Pseudomonas aeruginosa, ATCC7700; P. aeruginosa ATCC No. 7700
Procedure, shortened: as §6

[8] = system: E. coli AH719; assay: In vitro antibacterial MIC/MBC test; type: cell-based; conditions: Escherichia coli
Procedure, shortened: as §6

[9] = system: E. coli Vogel; assay: In vitro antibacterial MIC/MBC test; type: cell-based; conditions: Escherichia coli
Procedure, shortened: as §6

[10] = system: E. coli 2350; assay: In vitro antibacterial MIC/MBC test; type: cell-based; conditions: Escherichia coli
Procedure, shortened: as §6

[11] = system: P. aeruginosa (15442); assay: In vitro antibacterial MIC/MBC test; type: cell-based; conditions: Pseudomonas aeruginosa, ATCC15442; P. aeruginosa ATCC No. 15442
Procedure, shortened: as §6

[12] = system: Staphylococcus aureus Smith; assay: Mouse protection test, S. aureus Smith infection, multiple dose; type: in vivo, ICR mice; Staphylococcus aureus; conditions: for ED50: Staphylococcus aureus, 168 h, read-out: Protective Dose 50% (95% Confidence Limits)
Protocol: as §1, §2, §3, §4
2. Multiple dose test--Mice were medicated subcutaneously (0.2 ml) or orally (0.5 ml) at the following times: six hours and one hour preinfection (infection at 2 pm) and twice a day (8 a.m. and 3:30 p.m.) for the next two successive days.
as §5

[13] = system: P. aeruginosa; assay: In vitro MIC/MBC summary (Table II); type: cell-based, Pseudomonas aeruginosa
Protocol: Win 52,522 and Win 35,439 were solubilized in 0.1 ml of 0.5 N NaOH/mg of compound and diluted in sterile distilled water to 160 mcg/ml. Vancomycin and methicillin were solubilized in sterile distilled water to 1250 mcg/ml of base compound. The stock solutions were sterilized by filtration through membrane filters with a 0.45 μm pore size.
The bacterial cultures listed in Table I (hereinbelow) were grown overnight at 37° C. in MHB for all cultures except the Streptococcus strains. These were grown in BHI+10% NHS. The overnight broth cultures were adjusted to an optical density of 0.10 (650 nm, B L Spectronic 20) in sterile distilled water and subsequently diluted to 6.7×10^6 cells/ml in MHB or BHI+1% NHS.
Serial two-fold dilutions of the compound solutions were prepared in MHB (or in BHI+1% NHS for tests with Streptococci) and dispensed into 96-well microtiter trays in a volume of 0.1 ml/well using a Sandy Springs (Bellco Glass Co.) dispenser. The trays were then inoculated with 0.0015 ml of a suspension containing 6.7×10^6 cells/ml of the appropriate inoculum using a MIC-2000 inoculator (Dynatech Corp.) resulting in a final inoculum of approximately 1×10^4 cells/well or 1×10^5 cells/ml. The trays were incubated at 37° C. for 18-20 hours and the minimal inhibitory concentration (MIC), defined as the lowest concentration of compound to inhibit visible bacterial growth, was recorded.
After the MIC values were recorded, the contents in the microtiter trays were thoroughly mixed on a Bellco Mini-orbital Shaker (Bellco Glass Co.) for 3 min. at a setting of 8. A portion (0.0015 ml) from each well was then transferred via an MIC-2000 inoculator to plates containing MHA or BHI agar+10% NHS. The plates were incubated at 37° C. for 18-20 hrs. The minimal bactericidal concentration (MBC), defined as the lowest concentration of compound that prevented the formation of a recognizable colony on the agar surface, was recorded.

[14] = Pseudomonas aeruginosa, 5 P. aeruginosa strains
[15] = Pseudomonas aeruginosa, 5 P. aeruginosa strains, read-out: MBC 50%
[16] = Pseudomonas aeruginosa, 5 P. aeruginosa strains, read-out: MBC 90%

CN[C@H](CC(C)C)C(=O)N[C@H]1C(=O)N[C@@H](CC(N)=O)C(=O)N[C@H]2C(=O)N[C@H]3C(=O)N[C@H](C(=O)N[C@H](C(=O)O)c4cc(O)cc(O)c4-c4cc3ccc4O)[C@H](O)c3ccc(c(Cl)c3)Oc3cc2cc(c3O[C@@H]2O[C@H](CO)[C@@H](O)[C@H](O)[C@H]2O[C@H]2C[C@](C)(N)[C@H](O)[C@H](C)O2)Oc2ccc(cc2Cl)[C@H]1O [Vancomycin]
Survivors/Total ([1]; 0.78 mg/kg sc, single dose): 2/10
Survivors/Total ([1]; 1.56 mg/kg sc, single dose): 9/10
Survivors/Total ([1]; 3.13 mg/kg sc, single dose): 9/10
Survivors/Total ([1]; 6.25 mg/kg sc, single dose): 10/10
Survivors/Total ([1]; 12.5 mg/kg sc, single dose): 10/10
ED50 ([1]; sc): 1.1 mg/kg

CCn1cc(C(=O)O)c(=O)c2ccc(-c3cc(C)nc(C)c3)cc21 [Win 35,439, 1-ethyl-1,4-dihydro-7-(2,6-dimethyl-4-pyridinyl)-4-oxo-3-quinolinecarboxylic acid]
MBC [2]: 16 µg/mL (≈ 49.6 µM)
MIC [2]: 8 µg/mL (≈ 24.8 µM)
MBC [3]: > 16 µg/mL
MIC [3]: 8 µg/mL (≈ 24.8 µM)
MBC [4]: 0.5 µg/mL (≈ 1.55 µM)
MIC [4]: 0.5 µg/mL (≈ 1.55 µM)
MBC [5]: > 16 µg/mL
MIC [5]: 16 µg/mL (≈ 49.6 µM)
MBC [6]: 2 µg/mL (≈ 6.2 µM)
MIC [6]: 2 µg/mL (≈ 6.2 µM)
MBC [7]: > 16 µg/mL
MIC [7]: 16 µg/mL (≈ 49.6 µM)
MBC [8]: 0.5 µg/mL (≈ 1.55 µM)
MIC [8]: 0.5 µg/mL (≈ 1.55 µM)
MBC [9]: 2 µg/mL (≈ 6.2 µM)
MIC [9]: 2 µg/mL (≈ 6.2 µM)
MBC [10]: 0.5 µg/mL (≈ 1.55 µM)
MIC [10]: 0.5 µg/mL (≈ 1.55 µM)
MBC [11]: > 16 µg/mL
MIC [11]: > 16 µg/mL
Survivors/Total ([1]; 0.39 mg/kg po, single dose): 0/10
Survivors/Total ([1]; 0.78 mg/kg po, single dose): 1/10
Survivors/Total ([1]; 0.78 mg/kg sc, single dose): 1/10
Survivors/Total ([1]; 1.56 mg/kg po, single dose): 0/10
Survivors/Total ([1]; 1.56 mg/kg sc, single dose): 0/10
Survivors/Total ([1]; 3.13 mg/kg po, single dose): 0/10
Survivors/Total ([1]; 3.13 mg/kg sc, single dose): 6/10
Survivors/Total ([1]; 6.25 mg/kg po, single dose): 7/10
Survivors/Total ([1]; 6.25 mg/kg sc, single dose): 10/10
ED50 ([1]; po, single dose): ~5.5 mg/kg
ED50 ([1]; sc, single dose): 2.9 mg/kg
Survivors/Total ([12]; 3.13 mg/kg po): 0/10
Survivors/Total ([12]; 3.13 mg/kg sc): 1/10
Survivors/Total ([12]; 6.25 mg/kg po): 4/10
Survivors/Total ([12]; 6.25 mg/kg sc): 3/10
Survivors/Total ([12]; 12.5 mg/kg po): 9/10
Survivors/Total ([12]; 12.5 mg/kg sc): 10/10
Survivors/Total ([12]; 25 mg/kg po): 10/10
Survivors/Total ([12]; 25 mg/kg sc): 10/10
ED50 ([12]; po): 7.2 mg/kg
ED50 ([12]; sc): 7.1 mg/kg
MIC50 [13, 14]: 16 µg/mL (≈ 49.6 µM)
MIC90 [13, 14]: 16 µg/mL (≈ 49.6 µM)
MBC [13, 15]: > 16 µg/mL
MBC [13, 16]: > 16 µg/mL

CCn1cc(C(=O)O)c(=O)c2cc(F)c(-c3cc(C)nc(C)c3)cc21 [Win 52,522, 1-ethyl-6-fluoro-1,4-dihydro-7-(2,6-dimethyl-4-pyridinyl)-4-oxo-3-quinolinecarboxylic acid]
MBC [2]: 16 µg/mL (≈ 47 µM)
MIC [2]: 16 µg/mL (≈ 47 µM)
MBC [3]: 16 µg/mL (≈ 47 µM)
MIC [3]: 4 µg/mL (≈ 11.8 µM)
MBC [4]: 0.25 µg/mL (≈ 0.735 µM)
MIC [4]: 0.25 µg/mL (≈ 0.735 µM)
MBC [5]: 16 µg/mL (≈ 47 µM)
MIC [5]: 16 µg/mL (≈ 47 µM)
MBC [6]: 0.5 µg/mL (≈ 1.47 µM)
MIC [6]: 0.5 µg/mL (≈ 1.47 µM)
MBC [7]: 16 µg/mL (≈ 47 µM)
MIC [7]: 16 µg/mL (≈ 47 µM)
MBC [8]: 0.25 µg/mL (≈ 0.735 µM)
MIC [8]: 0.25 µg/mL (≈ 0.735 µM)
MBC [9]: 0.5 µg/mL (≈ 1.47 µM)
MIC [9]: 0.25 µg/mL (≈ 0.735 µM)
MBC [10]: 0.25 µg/mL (≈ 0.735 µM)
MIC [10]: 0.25 µg/mL (≈ 0.735 µM)
MBC [11]: 16 µg/mL (≈ 47 µM)
MIC [11]: 16 µg/mL (≈ 47 µM)
Survivors/Total ([1]; 0.095 mg/kg sc, single dose): 0/10
Survivors/Total ([1]; 0.19 mg/kg po, single dose): 0/10
Survivors/Total ([1]; 0.19 mg/kg sc, single dose): 0/10
Survivors/Total ([1]; 0.39 mg/kg po, single dose): 0/10
Survivors/Total ([1]; 0.39 mg/kg sc, single dose): 2/10
Survivors/Total ([1]; 0.78 mg/kg po, single dose): 0/10
Survivors/Total ([1]; 0.78 mg/kg sc, single dose): 4/10
Survivors/Total ([1]; 1.56 mg/kg po, single dose): 7/10
Survivors/Total ([1]; 1.56 mg/kg sc, single dose): 10/10
Survivors/Total ([1]; 3.13 mg/kg po, single dose): 10/10
ED50 ([1]; po, single dose): ~1.4 mg/kg
ED50 ([1]; sc, single dose): 0.8 mg/kg
times more efficacious than Win 35,439 ([1]; po, single dose): 3.9 times
times more efficacious than Win 35,439 ([1]; sc, single dose): 3.6 times
Survivors/Total ([12]; 0.19 mg/kg po): 0/10
Survivors/Total ([12]; 0.19 mg/kg sc): 0/10
Survivors/Total ([12]; 0.39 mg/kg po): 0/10
Survivors/Total ([12]; 0.39 mg/kg sc): 0/10
Survivors/Total ([12]; 0.78 mg/kg po): 0/10
Survivors/Total ([12]; 0.78 mg/kg sc): 0/10
Survivors/Total ([12]; 1.56 mg/kg po): 2/10
Survivors/Total ([12]; 1.56 mg/kg sc): 4/10
Survivors/Total ([12]; 3.13 mg/kg po): 9/10
Survivors/Total ([12]; 3.13 mg/kg sc): 9/10
Survivors/Total ([12]; 6.25 mg/kg po): 10/10
Survivors/Total ([12]; 6.25 mg/kg sc): 10/10
Survivors/Total ([12]; 12.5 mg/kg po): 10/10
Survivors/Total ([12]; 12.5 mg/kg sc): 10/10
ED50 ([12]; po): 2.1 mg/kg
ED50 ([12]; sc): 1.8 mg/kg
times more efficient than Win 35,439 ([12]; po): 3.4 times
times more efficient than Win 35,439 ([12]; sc): 3.9 times
MIC [13, 14]: 4 to 16 µg/mL (≈ 11.8 to 47 µM)
MIC50 [13, 14]: 16 µg/mL (≈ 47 µM)
MIC90 [13, 14]: 16 µg/mL (≈ 47 µM)
MBC [13, 15]: 16 µg/mL (≈ 47 µM)
MBC [13, 16]: 16 µg/mL (≈ 47 µM)
MBC ([13]; Pseudomonas aeruginosa, 5 P. aeruginosa strains, read-out: MBC Range): 16 µg/mL (≈ 47 µM)
potency relative to Win 35,439 ([13]; in vitro, P. aeruginosa): similarly potent
